Assay results from patent US20130130305A1, “IN[…] THAT INHIBIT IAA OR A YAP FAMILY” (priority 2010, published 2013).

Key:
C. albicans [1] = assay: IAA-induced filamentation in C. albicans; assay type: cell-based, Candida albicans
Protocol: (§1) Analytical and phenotypic studies were performed in cognate deletion mutants, made in the Σ1278b background. A [^14C]Trp incorporation assay was performed to verify that phenotype observed in the library strain could be recapitulated in the newly constructed E1278b strain. Typically three independent transformants were isolated, confirmed by PCR and used for further studies. Standard culture conditions were used (Sherman et al., Laboratory Course Manual for Methods in Yeast Genetics, Cold Spring Harbor Laboratories Press, Cold Spring Harbor, N.Y., 1986) and analysis of IAA-associated phenotypes were performed as described earlier (Prusty et al., Proc. Natl. Acad. Sci. USA 101:4153-4157, 2004).
IAA induces filamentation in C. albicans: The effects of the secondary metabolites identified in fungi appear to be largely species specific (Chen and Fink, Genes Dev. 20:1150-1161, 2006). […] To test whether the IAA effects could cross species barriers, we exposed wild-type C. albicans, a human pathogen, as well as attenuated mutants in the mitogen-activated protein (MAP) kinase and the cAMP-dependent protein kinase pathways to IAA. […] The cph1Δ/Δefg1Δ/Δ double mutant, which is nonfilamentous under standard laboratory conditions and avirulent in mice, filaments in the oral cavity of immunosuppressed piglets and when embedded in agar (Riggle et al., Infect. Immun. 67:3649-3652, 1999).

C. albicans [2] = assay: Growth on media containing IAA (IAA sensitivity) of C. albicans CAP1 deletion mutants; assay type: cell-based, Candida albicans
Protocol: as §1
To test if other aspects of IAA regulation in S. cerevisiae were also conserved in C. albicans, we tested Cap1, the C. albicans homolog of Yap, for its sensitivity to IAA.

S. cerevisiae = assay: IAA-associated growth inhibition phenotype in S. cerevisiae ald mutants; assay type: cell-based, Saccharomyces cerevisiae
Protocol: as §1
The ability of a fungus to perceive a small molecule signal that causes it to differentiate into an invasive form has important implications for host-pathogen interactions. To test the hypothesis that mutants with aberrant IAA accumulation also affect dimorphism, we examined diploid filamentation and haploid invasive growth in all ald single mutants and selected combinations of double mutants. […] We also tested a previously reported growth inhibition phenotype associated with exposure to IAA. […] However, these phenotypes are consistent with ald2Δald3Δ mutants producing more IAA than isogenic wild-type strains.

O=C(O)Cc1c[nH]c2ccccc12 [IAA, indole-3-acetic acid]
filamentation (C. albicans [1]; single mutants efg1Δ/Δ or cph1Δ/Δ, exposed to IAA): showed a robust filamentation
filamentation (C. albicans [1]; wild-type strains, treated with IAA vs untreated cells): filamented more
growth on media containing IAA (C. albicans [2]; heterozygous and homozygous CAP1 deletion mutants vs isogenic wild type): grew less well
sensitivity to IAA (C. albicans [2]; heterozygous cap1Δ/+ vs wild-type CAP1+/+ or homozygous cap1Δ/Δ): intermediate sensitivity
sensitivity to IAA (growth inhibition) (S. cerevisiae; deletion of both ald2 and ald3 vs wild-type cells): increase in sensitivity to IAA
sensitivity to IAA (growth inhibition) (S. cerevisiae; single deletion of an ALD gene vs wild-type cells): did not affect IAA sensitivity
